16 substances from patent US7847065B2, “CXADRL1 polypeptides relating to human cancers” (Oncotherapy Science, Inc., priority 2002, dated 2010) can be followed below.

One data set has as its system MKN-28 cells. Nature of the data set: MTT assay after transfection of S-oligonucleotides, MKN-28. Format: cell-based, human. The conditions noted are these: six days after transfection. Here is the method:
(§1) Cells plated onto 10-cm dishes (2×10^5 cells/dish) were transfected either with plasmid, or synthetic S-oligonucleotides of CXADRL1, GCUD1, or RNF43 using LIPOFECTIN Reagent (GIBCO BRL). Then the cells were cultured with the addition of an appropriate concentration of geneticin for six to twelve days. The cells were then fixed with 100% methanol and stained by Giemsa solution. Sequences of the S-oligonucleotides were as follows:
(§2) Cells plated at a density of 5×10^5 cells/100 mm dish were transfected in triplicate with sense or antisense S-oligonucleotides designated to suppress the expression of CXADRL1, GCUD1, or RNF43. […] Subsequently, the cells were lysed by the addition of 1 ml of 0.01 N HCl/10% SDS and the absorbance of lysates was measured with ELISA plate reader at a test wavelength of 570 nm (reference, 630 nm). The cell viability was represented by the absorbance compared to that of control cells.
A general note: Formazan colour is commonly taken as a measure of viable cells.

Data set [1] has as its system MKN-1 gastric cancer cells. Nature of the data set: MTT assay after transfection of S-oligonucleotides, MKN-1. The following applies: MKN-1 cells, six days after transfection. The class given is cell-based, human. Here is the method:
as §1, §2

The next data set deals with SNU475. Nature of the data set: Cytotoxicity of CTLs against tumor cell line SNU475. The class given is cell-based, human. The conditions noted are these: SNU475 expresses CXADRL1, GCUD1 and HLA-A*0201.
For data set [2], the system named is T2 cells (HLA-A*0201). Nature of the data set: 51Cr-release cytotoxicity assay of peptide-induced CTLs on T2 cells.
Description: (§3) Target cells were labeled with 100 μCi of Na2^51CrO4 (Perkin Elmer Life Sciences) for 1 h at 37° C. in a CO2 incubator. When peptide-pulsed targets were used, target cells were incubated with the addition of 20 μg/ml of the peptide for 16 h at 37° C. before the labeling with Na2^51CrO4. Target cells were rinsed and mixed with effectors at a final volume of 0.2 ml in round-bottom microtiter plates. The plates were centrifuged (4 minutes at 800×g) to increase cell-to-cell contact and placed in a CO2 incubator at 37° C. After 4 h of incubation, 0.1 ml of the supernatant was collected from each well and the radioactivity was determined with a gamma counter. In case of evaluating cytotoxicity against target cells that endogenously express RNF43, CXADRL1, or GCUD1, the cytolytic activity was tested in the presence of a 30-fold excess of unlabeled K562 cells to reduce any non-specific lysis due to NK-like effectors. […] The MHC restriction was examined by blocking assay, measuring the inhibition of the cytotoxicity with anti-HLA-class I (W6/32) antibody and anti-HLA-class II antibody, or anti-CD4 antibody and anti-CD8 antibody (DAKO).
(§4) The percentage of specific cytotoxicity was determined by calculating the percentage of specific ^51Cr-release by the following formula: {(cpm of the test sample release−cpm of the spontaneous release)/(cpm of the maximum release−cpm of the spontaneous release)}×100. Spontaneous release was determined by incubating the target cells alone in the absence of effectors, and the maximum release was obtained by incubating the targets with 1N HCl. All determinants were done in duplicate, and the standard errors of the means were consistently below 10% of the value of the mean.
The test system of data set [3] is T2 cells (HLA-A*0201).
Description: as §3, §4

Ends that are not written are not given here.

Description for DLD-1: Target cells were labeled with 100 μCi of Na2^51CrO4 (Perkin Elmer Life Sciences) for 1 h at 37° C. in a CO2 incubator. When peptide-pulsed targets were used, target cells were incubated with the addition of 20 μg/ml of the peptide for 16 h at 37° C. before the labeling with Na2^51CrO4. Target cells were rinsed and mixed with effectors at a final volume of 0.2 ml in round-bottom microtiter plates. The plates were centrifuged (4 minutes at 800×g) to increase cell-to-cell contact and placed in a CO2 incubator at 37° C. After 4 h of incubation, 0.1 ml of the supernatant was collected from each well and the radioactivity was determined with a gamma counter. In case of evaluating cytotoxicity against target cells that endogenously express RNF43, CXADRL1, or GCUD1, the cytolytic activity was tested in the presence of a 30-fold excess of unlabeled K562 cells to reduce any non-specific lysis due to NK-like effectors. […]
The percentage of specific cytotoxicity was determined by calculating the percentage of specific ^51Cr-release by the following formula: {(cpm of the test sample release−cpm of the spontaneous release)/(cpm of the maximum release−cpm of the spontaneous release)}×100. Spontaneous release was determined by incubating the target cells alone in the absence of effectors, and the maximum release was obtained by incubating the targets with 1N HCl. […]
Description for HT29: as §3, §4
Description for SNU475: as §3, §4
Description for TISI cells (HLA-A24/24): as §3, §4

Consider “5′-CAGCCATCCTGAAAAG-3′ (phosphorothioate, further chemistry not given here) [GCUD1-AS5, antisense S-oligonucleotide]”, for which, in the data set on MKN-28 cells, the “Viable cells (MTT assay) compared with control S-oligonucleotides” value is given as “markedly fewer”.
On to “5′-CGGCTTACCTCAACCT-3′ (phosphorothioate, further chemistry not given here) [GCUD1-AS8, antisense S-oligonucleotide]”, for which the “Viable cells (MTT assay) compared with control S-oligonucleotides” value in the data set on MKN-28 cells is recorded as “markedly fewer”.
For “5′-CTACTCACCGTGCAGA-3′ (phosphorothioate, further chemistry not given here) [CXADRL1-AS4, antisense S-oligonucleotide]”, the “Viable cells (MTT assay) compared with control S-oligonucleotides” value in data set [1] is “markedly fewer”.
The same measure, in the same setting: the result for “5′-TGCAACACCTACAGAA-3′ (phosphorothioate, further chemistry not given here) [CXADRL1-AS5, antisense S-oligonucleotide]” reads “markedly fewer”.
Take ALSSGLYQV [CXADRL1-9V, ALSSGLYQV]: in the data set with SNU475, the “Cytotoxic activity of peptide-induced CTLs against SNU475” value was “killed”.
With ALWPWLLMA [RNF43-11, ALWPWLLMA], in the data set on DLD-1, the “Cytotoxic activity of CTL clone on DLD-1” value is “high cytotoxic activity”. Also, in the data set on HT29, the “Cytotoxic activity of CTL clone on HT29” value is reported as “no significant cytotoxic activity”.
With FLTTASGVSV [GCUD1-272, FLTTASGVSV], in the data set with T2 cells (HLA-A*0201) [2] (T2 not pulsed with any peptide), the “Cytotoxic activity of peptide-induced CTL line/clone on non-pulsed target” value is listed as “without showing any cytotoxic activity”. Moreover, in the data set with T2 cells (HLA-A*0201) [2] (T2 pulsed with the peptide), the “Cytotoxic activity of peptide-induced CTL line/clone on peptide-pulsed target” value is recorded as “very potent cytotoxic activity”.
KLMEFVYKN [RNF43-171, KLMEFVYKN]: in the data set on T2 cells (HLA-A*0201) [3], the “Cytotoxicity(%) ×2 Pep(+)” value is 1.1%, the “Cytotoxicity(%) ×2 Pep(−)” value is given as −0.5%, the “Cytotoxicity(%) ×20 Pep(+)” value turned out to be 2.6% and the “Cytotoxicity(%) ×20 Pep(−)” value worked out at 0.0%.
Turning to KLMQSHPLYL [RNF43-81, KLMQSHPLYL], in the data set with TISI cells (HLA-A24/24), the “Cytotoxic activity of peptide-induced CTL line/clone on peptide-pulsed target” value was “modest cytotoxic activity”, the “Cytotoxicity of CTL lines (10mer) ×2 Pep(+)” value is recorded as 2%, the “Cytotoxicity of CTL lines (10mer) ×2 Pep(−)” value is listed as −3% and the “Cytotoxicity of CTL lines (10mer) ×20 Pep(+)” value was found to be 10%. The “Cytotoxicity of CTL lines (10mer) ×20 Pep(−)” value in the data set with TISI cells (HLA-A24/24) came out at 5%. Further, in the data set on T2 cells (HLA-A*0201) [3], the “Cytotoxicity(%) ×2 Pep(+)” value is 6.3%, the “Cytotoxicity(%) ×2 Pep(−)” value was 8.3%, the “Cytotoxicity(%) ×20 Pep(+)” value was 18.0% and the “Cytotoxicity(%) ×20 Pep(−)” value is 27.6%.
For KLNLTLEGV [RNF43-60, KLNLTLEGV], in the data set with T2 cells (HLA-A*0201) [3], the “Cytotoxicity(%) ×2 Pep(+)” value is listed as −1.6%, the “Cytotoxicity(%) ×2 Pep(−)” value is given as 0.0%, the “Cytotoxicity(%) ×20 Pep(+)” value is recorded as −2.1% and the “Cytotoxicity(%) ×20 Pep(−)” value worked out at 0.2%.
As to KMDAEHPEV [GCUD1-9V, KMDAEHPEV], the “Cytotoxic activity of peptide-induced CTLs against SNU475” value in the data set with SNU475 was “killed”.
With LLGPSRSAV [RNF43-358, LLGPSRSAV], in the data set with T2 cells (HLA-A*0201) [3], the “Cytotoxicity(%) ×2 Pep(+)” value came out at 0.0%, the “Cytotoxicity(%) ×2 Pep(−)” value was −0.8%, the “Cytotoxicity(%) ×20 Pep(+)” value is recorded as −0.4% and the “Cytotoxicity(%) ×20 Pep(−)” value was −0.7%.
In the same order, the values of LMQSHPLYL [RNF43-82, LMQSHPLYL] are 0.0%, −0.4%, 1.7% and 1.2%.
For WLHQHRTCPL [RNF43-302, WLHQHRTCPL] the same measures were 1.5%, 2.2%, 7.4% and 6.1%.
In the same order, the values of WLLMATLQA [RNF43-15, WLLMATLQA] are −0.4%, −0.9%, −0.2% and 0.0%.
As for YLLGPSRSAV [RNF43-357, YLLGPSRSAV], in the data set on T2 cells (HLA-A*0201) [3], the “Cytotoxicity(%) ×2 Pep(+)” value is on record as 3.7%, the “Cytotoxicity(%) ×2 Pep(−)” value is 3.0%, the “Cytotoxicity(%) ×20 Pep(+)” value is given as 18.2% and the “Cytotoxicity(%) ×20 Pep(−)” value amounted to 15.4%.
